Test results taken from PubChem BioAssay (NCI).
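A five-concentration, 48-hour dose response in 96-well plates underlies each endpoint, interpolated linearly between surrounding concentrations. The concentration for full growth arrest is given as TGI.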

Columns and labels:
Experiment in all cases: NCI tumour cell line growth inhibition, 48 h
DLD-1 colon = tested on: DLD-1 colon
XF 498 CNS = tested on: XF 498 CNS
M19-MEL melanoma = tested on: M19-MEL melanoma
KM20L2 colon = tested on: KM20L2 colon
LXFL 529 NSCLC = tested on: LXFL 529 NSCLC
P388 leukemia = tested on: P388 leukemia
SN12K1 renal = tested on: SN12K1 renal
P388/ADR leukemia = tested on: P388/ADR leukemia
RXF-631 renal = tested on: RXF-631 renal

| SMILES | TGI (DLD-1 colon) [µM] | TGI (XF 498 CNS) [µM] | TGI (M19-MEL melanoma) [µM] | TGI (KM20L2 colon) [µM] | TGI (LXFL 529 NSCLC) [µM] | TGI (P388 leukemia) [µM] | TGI (SN12K1 renal) [µM] | TGI (P388/ADR leukemia) [µM] | TGI (RXF-631 renal) [µM] |
| --- | --- | --- | --- | --- | --- | --- | --- | --- | --- |
| CN(C)[C@@H]1C(=O)C(C(=O)NCNCCCC(=O)O)=C(O)[C@@]2(O)C(=O)C3=C(O)c4c(O)cccc4[C@@](C)(O)[C@H]3C[C@@H]12 | > 100 | > 100 | > 100 | > 100 | > 100 |  |  |  |  |
| Cc1cc(=O)[nH]c(NN2C(Cl)C(=O)C2c2cccc([N+](=O)[O-])c2)n1 (stereo unspecified) |  |  | 49.1 | > 100 | 29.9 |  |  |  |  |
| CN(C)CCNC(=O)c1cccc2nc3c4ccccc4c4ccccc4c3nc12 | 2.9 | 9.06 | 3.4 | 10.3 | 10.1 |  |  |  |  |
| Oc1cc(O)cc(/C=C/c2ccc(O)c(O)c2)c1 | > 31.6 |  | 41.7 | 86.1 |  | > 66.9 | 18.3 | > 67.5 |  |
| COc1cc2ccc1-c1cc(ccc1O)CC1c3cc4c(cc3CCN1C)Oc1c(OC)cc3c(c1O4)C(C2)N(C)CC3 (stereo unspecified) | 5.27 | 3.44 | 3.36 | 2.97 | 3.23 |  |  |  |  |
| Cc1c2ccnc(-c3ccccc3)c2cc2c1[nH]c1ccccc12 | 16.1 |  | 8.48 | 6.8 |  | 5.46 | 5.04 | 6.08 |  |
| COc1cc2c(cc1OC)C(Cl)C(c1ccc(Cl)cc1)=C2Cl (stereo unspecified) | 37.8 | 9.09 | 41.3 | 39.5 | 17.5 |  |  |  | 51.7 |
